Measurements from patent US20240279230A1, “CRYSTALLINE FORMS OF A HER2 INHIBITOR” (Boehringer Ingelheim International GmbH, priority 2022, published 2024).
“Also recorded” adds a separate entry of the source. Each block holds one compound with its values, some of them ahead of it.

Key:
Type in all cases: physicochemical
[1] = Thermogravimetric Analysis (TGA); details: 20° C./min
Procedure: The methodology for this can be as follows. Solid compounds (˜5 mg) are placed in an aluminium pan and sealed. The instrument used for the analysis is a TA Instruments TGA 550. The same sample lots from DSC testing are used for TGA testing. Processing is completed using TRIOS software.

[2] = Dynamic Vapor Sorption (DVS) sorption isotherms, hygroscopic behaviour; details: for Hygroscopicity: DVS classification; for Δm (0-80%), moisture absorbed at 80% RH / Δm (0-90%), maximum water uptake: DVS, 25.0 ±1.0° C.; for Δm (0-90%), maximum water uptake: up to 90% RH; for Phase change during DVS experiment: RH cycled twice 0% to 90% to 0%; for Hysteresis: between sorption and desorption curves
Procedure: The methodology for this can be as follows. The mass of the solids is monitored as the relative humidity (RH) was deliberately changed. The RH is cycled twice from 0% to 90% to 0% in 10% steps. The temperature during measurement is kept constantly at (25.0 ±1.0° C.) Each step is held until mass stability was achieved. A camera inside the instrument captured an image at the conclusion of each stage, allowing for the observation of any visual changes in the solid form during the analysis.

[3] = Temperature stress tests with form I, form II and form VI, PXRD; details: 6 h at 150° C. (closed vial)
[4] = Polymorphic stability of form III and form IV under stress storage, PXRD; details: 21 days
Procedure: A Bruker D2 Phaser X-Ray Diffractometer (XRD, EQ-SSRD-XRD-01) can be used for characterizing the samples. Raw results are evaluated using DIFFRAC.EVA (Bruker, V5.0) software. The Kα2 contribution was stripped, and a peak search was performed using peak search parameters (width 0.302 and threshold 1.0).
A test sample (approximately 0.3 g) is representatively subsampled into an agate-type mortar and pestle. Sample is ground for approximately one minute to achieve a fine homogenous powder. Sample is then transferred into a stainless-steel sample holder fitted with a zero-diffraction plate (ZDP). The sample holder is then levelled off with a glass slide to create a flat sample surface level with the sample holder.

[5] = Chemical stability of solid state forms under temperature/humidity stress, related substances by HPLC at 252 nm; parameters: Impurity I / Impurity A / Impurity B / Impurity C / Impurity D / Impurity E / Impurity F / Impurity G / Impurity H: unit not given here
Source text: To do so, control samples are stored refrigerated in the presence of desiccant for the duration of the study and measured simultaneously with stressed samples by HPLC at a wavelength of 252 nm.

[6] = Control 1, stored refrigerated with desiccant
[7] = Control 2, stored refrigerated with desiccant
[8] = Control 3, stored refrigerated with desiccant

TGA change in mass ([1]; Decomposition): 47.883% | TGA end ([1]; Decomposition): 463.12 °C | TGA onset ([1]; Decomposition): 419.14 °C | Hygroscopicity [2]: hygroscopic | Hygroscopicity ([2]; listed as form I): hygroscopic | Δm (0-80%), moisture absorbed at 80% RH [2]: 5.4 wt % | Δm (0-80%), moisture absorbed at 80% RH ([2]; listed as form I): 5.4 wt % | Δm (0-90%), maximum water uptake [2]: 7.3 wt % | Δm (0-90%), maximum water uptake ([2]; listed as form I): 7.3 wt % | Phase change during DVS experiment [2]: no irreversible phase changes | Hysteresis [2]: yes | Hysteresis ([2]; listed as form I): significant hysteresis | PXRD of stressed sample [3]: Form I
SMILES: C=CC(=O)NC1CCN(c2ncc3ncnc(Nc4ccc(Oc5ccc6c(c5)ncn6C)c(C)c4)c3n2)CC1 [Form I, N-{1-[8-({3-methyl-4-[(1-methyl-1H-1,3-benzodiazol-5-yl)oxy]phenyl}amino)-[1,3]diazino[5,4-d]pyrimidin-2-yl]piperidin-4-yl}prop-2-enamide]
PXRD of stressed sample ([3]; listed as form I): remained unchanged; also recorded: polymorphically stable

TGA change in mass ([1]; Decomposition): 49.938% | TGA onset ([1]; Decomposition): 420.14 °C | TGA change in mass ([1]; Small mass loss event): 1.285% | TGA end ([1]; Small mass loss event): 243.82 °C | TGA onset ([1]; Small mass loss event): 224.60 °C | TGA change in mass ([1]; Small mass loss event, listed as form IV): around 1% | Change in visual appearance during the humidity cycles ([2]; DVS camera images): No change in the visual appearance | Hygroscopicity [2]: slightly hygroscopic | Hygroscopicity ([2]; listed as form IV): slightly hygroscopic | Δm (0-80%), moisture absorbed at 80% RH [2]: 0.4 wt % | Δm (0-80%), moisture absorbed at 80% RH ([2]; listed as form IV): 0.4 wt % | Δm (0-90%), maximum water uptake [2]: 0.5 wt % | Δm (0-90%), maximum water uptake ([2]; listed as form IV): 0.5 wt % | Hysteresis [2]: no | Hysteresis ([2]; listed as form IV): lack of hysteresis | Color change after stressing ([5]; 60-90° C., 3-79% RH, up to 21 days): No color changes | Impurity A ([5]; 60° C./75% RH, 17 days): 0.111 | Impurity B ([5]; 60° C./75% RH, 17 days): 0.008 | Impurity C ([5]; 60° C./75% RH, 17 days): 0.066 | Impurity D ([5]; 60° C./75% RH, 17 days): 0.014 | Impurity E ([5]; 60° C./75% RH, 17 days): 0.074 | Impurity F ([5]; 60° C./75% RH, 17 days): 0.012 | Impurity G ([5]; 60° C./75% RH, 17 days): 0.037 | Impurity H ([5]; 60° C./75% RH, 17 days): 0.132 | Impurity I ([5]; 60° C./75% RH, 17 days): 0.012 | Impurity A ([5]; 70° C./62% RH, 17 days): 0.113 | Impurity B ([5]; 70° C./62% RH, 17 days): 0.010 | Impurity C ([5]; 70° C./62% RH, 17 days): 0.065 | Impurity D ([5]; 70° C./62% RH, 17 days): 0.022 | Impurity E ([5]; 70° C./62% RH, 17 days): 0.069 | Impurity F ([5]; 70° C./62% RH, 17 days): 0.013 | Impurity G ([5]; 70° C./62% RH, 17 days): 0.038 | Impurity H ([5]; 70° C./62% RH, 17 days): 0.133 | Impurity I ([5]; 70° C./62% RH, 17 days): 0.012 | Impurity A ([5]; 75° C./41% RH, 17 days): 0.113 | Impurity B ([5]; 75° C./41% RH, 17 days): 0.010 | Impurity C ([5]; 75° C./41% RH, 17 days): 0.072 | Impurity D ([5]; 75° C./41% RH, 17 days): 0.015 | Impurity E ([5]; 75° C./41% RH, 17 days): 0.078 | Impurity F ([5]; 75° C./41% RH, 17 days): 0 | Impurity G ([5]; 75° C./41% RH, 17 days): 0.027 | Impurity H ([5]; 75° C./41% RH, 17 days): 0.129 | Impurity I ([5]; 75° C./41% RH, 17 days): 0.010 | Impurity A ([5]; 75° C./79% RH, 10 days): 0.103 | Impurity B ([5]; 75° C./79% RH, 10 days): 0.010 | Impurity C ([5]; 75° C./79% RH, 10 days): 0.065 | Impurity D ([5]; 75° C./79% RH, 10 days): 0.017 | Impurity E ([5]; 75° C./79% RH, 10 days): 0.073 | Impurity F ([5]; 75° C./79% RH, 10 days): 0.016 | Impurity G ([5]; 75° C./79% RH, 10 days): 0.038 | Impurity H ([5]; 75° C./79% RH, 10 days): 0.130 | Impurity I ([5]; 75° C./79% RH, 10 days): 0.012 | Impurity A ([5]; 80° C./11% RH, 17 days): 0.109 | Impurity B ([5]; 80° C./11% RH, 17 days): 0.009 | Impurity C ([5]; 80° C./11% RH, 17 days): 0.073 | Impurity D ([5]; 80° C./11% RH, 17 days): 0.013 | Impurity E ([5]; 80° C./11% RH, 17 days): 0.086 | Impurity F ([5]; 80° C./11% RH, 17 days): 0 | Impurity G ([5]; 80° C./11% RH, 17 days): 0.033 | Impurity H ([5]; 80° C./11% RH, 17 days): 0.126 | Impurity I ([5]; 80° C./11% RH, 17 days): 0.011 | Impurity A ([5]; 80° C./61% RH, 10 days): 0.111 | Impurity B ([5]; 80° C./61% RH, 10 days): 0.008 | Impurity C ([5]; 80° C./61% RH, 10 days): 0.065 | Impurity D ([5]; 80° C./61% RH, 10 days): 0.021 | Impurity E ([5]; 80° C./61% RH, 10 days): 0.070 | Impurity F ([5]; 80° C./61% RH, 10 days): 0.015 | Impurity G ([5]; 80° C./61% RH, 10 days): 0.039 | Impurity H ([5]; 80° C./61% RH, 10 days): 0.131 | Impurity I ([5]; 80° C./61% RH, 10 days): 0.011 | Impurity A ([5]; 90° C./3% RH, 17 days): 0.104 | Impurity B ([5]; 90° C./3% RH, 17 days): 0.011 | Impurity C ([5]; 90° C./3% RH, 17 days): 0.070 | Impurity D ([5]; 90° C./3% RH, 17 days): 0.018 | Impurity E ([5]; 90° C./3% RH, 17 days): 0.087 | Impurity F ([5]; 90° C./3% RH, 17 days): 0.008 | Impurity G ([5]; 90° C./3% RH, 17 days): 0.050 | Impurity H ([5]; 90° C./3% RH, 17 days): 0.125 | Impurity I ([5]; 90° C./3% RH, 17 days): 0.011 | Impurity A ([5]; 90° C./41% RH, 10 days): 0.112 | Impurity B ([5]; 90° C./41% RH, 10 days): 0.010 | Impurity C ([5]; 90° C./41% RH, 10 days): 0.065 | Impurity D ([5]; 90° C./41% RH, 10 days): 0.021 | Impurity E ([5]; 90° C./41% RH, 10 days): 0.076 | Impurity F ([5]; 90° C./41% RH, 10 days): 0.011 | Impurity G ([5]; 90° C./41% RH, 10 days): 0.044 | Impurity H ([5]; 90° C./41% RH, 10 days): 0.127 | Impurity I ([5]; 90° C./41% RH, 10 days): 0.012 | Impurity A ([5]; 90° C./78% RH, 17 days): 0.098 | Impurity B ([5]; 90° C./78% RH, 17 days): 0.011 | Impurity C ([5]; 90° C./78% RH, 17 days): 0.068 | Impurity D ([5]; 90° C./78% RH, 17 days): 0.015 | Impurity E ([5]; 90° C./78% RH, 17 days): 0.080 | Impurity F ([5]; 90° C./78% RH, 17 days): 0.014 | Impurity G ([5]; 90° C./78% RH, 17 days): 0.043 | Impurity H ([5]; 90° C./78% RH, 17 days): 0.125 | Impurity I ([5]; 90° C./78% RH, 17 days): 0.010 | Impurity A [5, 6]: 0.102 | Impurity B [5, 6]: 0.009 | Impurity C [5, 6]: 0.064 | Impurity D [5, 6]: 0.011 | Impurity E [5, 6]: 0.074 | Impurity F [5, 6]: 0.015 | Impurity G [5, 6]: 0.037 | Impurity H [5, 6]: 0.129 | Impurity I [5, 6]: 0.012 | Impurity A [5, 7]: 0.091 | Impurity B [5, 7]: 0.009 | Impurity C [5, 7]: 0.064 | Impurity D [5, 7]: 0.012 | Impurity E [5, 7]: 0.070 | Impurity F [5, 7]: 0.013 | Impurity G [5, 7]: 0.032 | Impurity H [5, 7]: 0.130 | Impurity I [5, 7]: 0.012 | Impurity A [5, 8]: 0.114 | Impurity B [5, 8]: 0.009 | Impurity C [5, 8]: 0.070 | Impurity D [5, 8]: 0.013 | Impurity E [5, 8]: 0.071 | Impurity F [5, 8]: 0 | Impurity G [5, 8]: 0.023 | Impurity H [5, 8]: 0.129 | Impurity I [5, 8]: 0.012 | Chemical stability in the solid state ([5]; up to 21 days at 90° C./78% RH): chemically very stable
SMILES: C=CC(=O)NC1CCN(c2ncc3ncnc(Nc4ccc(Oc5ccc6c(c5)ncn6C)c(C)c4)c3n2)CC1 [Form IV, N-{1-[8-({3-methyl-4-[(1-methyl-1H-1,3-benzodiazol-5-yl)oxy]phenyl}amino)-[1,3]diazino[5,4-d]pyrimidin-2-yl]piperidin-4-yl}prop-2-enamide]
Phase change during DVS experiment [2]: no indication of irreversible phase conversion or hydrate formation; also recorded: no irreversible phase changes | Polymorphic stability by PXRD ([4]; open storage 90° C./3% RH): stable and conformed to form IV reference standard; also recorded: neither form underwent phase changes | Polymorphic stability by PXRD ([4]; open storage 90° C./78% RH): stable and conformed to form IV reference standard; also recorded: neither form underwent phase changes | Increase in related substances ([5]; accelerated stress conditions, up to 21 days at 90° C./78% RH): no significant increase in any related substance
